Laboratory results as given in US20180020676A1 (priority 2014, published 2018).

Assays:
[1] = tested on: bean rust (Uromyces appendiculatus); test: Greenhouse control of bean rust versus […] OPTIMUM and chemical agents; type: in vivo; conditions: bean plants, 200 k conidia/ml, ten days after infection; biologicals 1×10^8 cfu/ml, Tebuconazole 50 g a.i./ha, Chlorothalonil 500 g a.i./ha; 0.1875% TACTIC in all
[2] = tested on: bean rust (Uromyces appendiculatus); test: Greenhouse control of bean rust at varying rates of inoculation; type: in vivo; conditions: 200K conidia/ml, ten days after infection, biologicals 1×10^8 cfu/ml, Tebuconazole 50 g a.i./ha
Protocol: The formulations and treatment methods used were the same as described for the previous experiment. One day after treatment application, the test plants were infected with bean rust (Uromyces appendiculatus) at an inoculation rate ranging from 50 k to 300 k conidia/ml. Ten days after infection with bean rust (Uromyces appendiculatus) the percent of disease control was evaluated for each of: […]

Compound | Percent Disease Control [1] | Percent Disease Control [2]
CC(C)(C)C(O)(CCc1ccc(Cl)cc1)Cn1cncn1 (stereo not drawn) [Tebuconazole] | 100% | 100 a %
N#Cc1c(Cl)c(Cl)c(Cl)c(C#N)c1Cl [Chlorothalonil] | 100% | 
